Assay results: ChEMBL document CHEMBL2401622, “Synthesis and in vitro evaluation of [18F]BMS-754807: a potential PET ligand for IGF-1R” (Bioorg Med Chem Lett, 2013)

Experiments:
Details in all cases: 0.0001 µM
[1] = Drug uptake in human pancreatic tumor at 0.1 nM after 1 hr by phosphor imager autoradiography; assay type: ADME
[2] = Drug uptake in human breast tumor at 0.1 nM after 1 hr by phosphor imager autoradiography; assay type: ADME, tissue-based
[3] = Drug uptake in human grade 4 glioblastoma at 0.1 nM after 1 hr by phosphor imager autoradiography; assay type: ADME

Measured: Drug uptake

C[C@@]1(C(=O)Nc2ccc([18F])nc2)CCCN1c1nc(Nc2cc(C3CC3)[nH]n2)c2cccn2n1
Active: [1] | [2] | [3]
